Structures are written as SMILES.

The record followed here is patent US8765944B2, “Compounds for the treatment of hepatitis C” (priority 2010, dated 2014).

The test deals with HCV pseudoparticles. The test is described as follows: HCV pseudoparticle infection assay (luciferase reporter, Huh7 cells). The test is classed as cell-based, HCV (genotype 1b E1 and E2 envelope). The conditions noted are these: Hepatitis C virus, genotype 1b, Huh-7, 48 h, HCV pseudoparticles (genotype 1b), luciferase activity 2 days after infection, class. In general terms: A reporter such as luciferase makes a cellular process visible.
For orientation: EC50 means the concentration needed to bring the measured effect to its halfway point. The low end stands for higher potency in that assay, the high end for lower potency in that assay. For `COCC1(S(=O)(=O)NC(=O)c2ccc(Nc3nc(NC4(c5ccc(Cl)cc5)CC4)nc(OCC(F)(F)F)n3)cc2)CC1` [Example 1010], the half-maximal effective concentration (EC50) is 0.5 to 100 nM. For the compound `NC(=O)C1C[C@@H]2C[C@@H]2N1CC1(S(=O)(=O)NC(=O)c2ccc(Nc3nc(NC4(c5ccc(Cl)cc5)CC4)nc(OCC(F)(F)F)n3)cc2)CC1` (stereo partly shown) [Example 1017], the EC50 was in the range of 0.5 to 100 nM. For `O=C(CC(F)(F)F)NCCS(=O)(=O)NC(=O)c1ccc(Nc2nc(NC3(c4ccc(Cl)cc4)CC3)nc(OCC(F)(F)F)n2)cc1` [Example 1040] the value was 0.5 to 100 nM. The value for `O=C(CCN1CCS(=O)(=O)CC1)NCC1(C(=O)NS(=O)(=O)c2ccc(Nc3nc(NC4(c5ccc(Cl)cc5)CC4)nc(OCC(F)(F)F)n3)cc2)CC1` [Example 3009] was 1000 to 5000 nM.
